Assay results: patent publication US4438029A, “Synthetic peptides” (Research Corporation, priority 1979, dated 1984)
Ends that are not written are not given here.

Test system: guinea pig ileum strips
Assay: Contraction of guinea pig ileum strips in Tyrode's solution
Format: cell-based
Details: full contraction; for Activity (amount of peptide per 10 ml of solution to contract fully guinea pig ileum strips): Table I, guinea pig ileum strips with Tyrode's solution; for Ileum Activity (amount of peptide per 10 ml of Tyrode's solution to fully contract a guinea pig ileum strip): Table II

Substance: ASHLGLAR [No. 5, L-Alanyl-L-seryl-L-histidyl-L-leucyl-glycyl-L-leucyl-L-alanyl-L-arginine]
- Activity (amount of peptide per 10 ml of solution to contract fully guinea pig ileum strips): 5 to 8 nmol

Substance: Ac-AAALGLAR [CH3 CO--Ala-Ala-Ala-Leu-Gly-Leu-Ala-Arg]
- Ileum Activity (amount of peptide per 10 ml of Tyrode's solution to fully contract a guinea pig ileum strip): 7 to 13 nmol

Substance: Ac-ALGLAR [CH3 CO--Ala-Leu-Gly-Leu-Ala-Arg]
- Ileum Activity (amount of peptide per 10 ml of Tyrode's solution to fully contract a guinea pig ileum strip): 19 to 38 nmol

Substance: Ac-ASHLGLAR [No. 6, CH3 CO--Ala-Ser-His-Leu-Gly-Leu-Ala-Arg]
- Activity (amount of peptide per 10 ml of solution to contract fully guinea pig ileum strips): 8 to 12 nmol

Substance: Ac-HLGLAR [CH3 CO--His-Leu-Gly-Leu-Ala-Arg]
- Ileum Activity (amount of peptide per 10 ml of Tyrode's solution to fully contract a guinea pig ileum strip): 8 to 17 nmol

Substance: Ac-LGLAR [CH3 CO--Leu-Gly-Leu-Ala-Arg]
- Ileum Activity (amount of peptide per 10 ml of Tyrode's solution to fully contract a guinea pig ileum strip): 36 to 45 nmol
